In patent publication US20230129364A1, “PYRROLIDINE DERIVATIVE, AND PHARMACEUTICAL COMPOSITION FOR PREVENTING OR TREATING BETA-AMYLOID OR TAU PROTEIN-ASSOCIATED DISEASES CONTAINING SAME” (YONSEI UNIVERSITY, UNIVERSITY - INDUSTRY FOUNDATION (UIF), priority 2019, published 2023):

How the values were obtained:
[1] = molecular target: T1, Tau protein (wild-type K18) (Homo sapiens, UniProt P10636); experiment: Tau protein aggregation inhibition test (thioflavin T assay); format: biochemical; conditions: heparin/DTT-induced aggregation, 37° C. 5 days, ThT fluorescence vs tau-only control = 100%
T1 construct: Tau protein (wild-type K18)
T1 sequence (P10636 561-685 limits assumed): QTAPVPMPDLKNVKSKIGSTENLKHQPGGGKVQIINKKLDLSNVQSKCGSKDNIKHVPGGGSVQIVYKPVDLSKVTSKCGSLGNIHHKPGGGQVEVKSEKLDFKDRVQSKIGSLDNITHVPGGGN
Description: (§1) Tau protein (wild-type K18) was dissolved in phosphate-buffered saline (PBS, pH 7.4) at a concentration of 1 mg/mL to prepare a tau protein solution. In order to induce aggregation of tau proteins, 0.1 mg/mL of heparin and 100 μM dithiothreitol (DTT) were added to 1 mg/mL of the tau protein solution, followed by incubation at 37° C. for 5 days. At this time, the result was mixed with each test compound (50, 500 μM) such that the final concentration reached 0.5 mg/mL, followed by further incubation.
The inhibitory effect of each compound against tau aggregation was measured based on the intensity of fluorescence by thioflavin T (ThT) assay (see Example 2). More specifically, 25 μL of the reaction solution was charged in each well of a 96-well plate for fluorescence analysis, and 75 μL of the prepared thioflavin-T solution was then charged in each well. The reaction was allowed to proceed at room temperature in a dark laboratory for 5 minutes, and then fluorescence values were measured at an excitation wavelength of 450 nm and an emission wavelength of 485 nm using a multi-mode microplate reader.
The ratio of the fluorescence value measured in the group obtained by treating with each test compound to 100% of the fluorescence value of the group (control group) obtained by treating only with tau proteins and inducing aggregation for 5 days is set forth in Table 5 below: […]

[2] = molecular target: T2, aggregated tau protein (wild-type K18) (Homo sapiens, UniProt P10636); experiment: Tau protein aggregate degradation test (thioflavin T assay); format: biochemical; conditions: pre-aggregated tau, further 5 days at 37° C., ThT fluorescence vs control = 100%
T2 construct: Tau protein (wild-type K18)
T2 sequence (P10636 561-685 limits assumed): as above
Description: as §1, with “solution.” for “solution. In order to induce aggregation of tau proteins,”, “days to induce tau protein aggregation. The aggregated tau protein” for “days. At this time, the result”, “in an amount of 50 or” for “(50,”, “μM” for “μM)”, “incubation at 37° C. for 5 days to induce reaction.” for “incubation.”
The degradation effect of each compound on the tau aggregates was measured by thioflavin T (ThT) assay (see Example 2). More specifically, 25 μL of the reaction solution was charged in each well of a 96-well plate for fluorescence analysis and 75 μL of the prepared thioflavin-T solution was charged in each well. The reaction was allowed to proceed at room temperature in a dark laboratory for 5 minutes and then fluorescence values were measured at an excitation wavelength of 450 nm and an emission wavelength of 485 nm using a multi-mode microplate reader.
The ratio of the fluorescence value measured in the group obtained by treating with each test compound to 100% of the fluorescence value of the group (control group) obtained by treating only with tau proteins and inducing aggregation for 5 days is set forth in Table 6 below: […]

Row | Tau aggregation remaining (ThT fluorescence, % of tau-only control) ([1]; 50 uM test compound) | Tau aggregation remaining (ThT fluorescence, % of tau-only control) ([1]; 500 uM test compound) | ThT fluorescence remaining (% of control) ([2]; 50 uM test compound) | ThT fluorescence remaining (% of control) ([2]; 500 uM test compound) | Structure (SMILES)
1 | 83.97 % of control |  |  |  | CCN1C(=O)N/C(=C\c2c[nH]c3ccncc23)C1=O [DN205822, (Z)-5-((1H-pyrrolo[3,2-c]pyridin-3-yl)methylene)-3-ethylimidazolidine-2,4-dione]
2 | 87.61 % of control | 65.66 % of control |  |  | CCN1C(=O)/C(=C/c2csc3ccccc23)NC1=S [DN204810, (Z)-5-(benzo[b]thiophen-3-ylmethylene)-3-ethyl-2-thioxoimidazolidin-4-one]
3 | 83.56 % of control | 62.51 % of control |  |  | CCN1C(=O)/C(=C/c2c[nH]c3cnccc23)SC1=S [DN205779, (Z)-5-((1H-pyrrolo[2,3-c]pyridin-3-yl)methylene)-3-ethyl-2-thioxothiazolidin-4-one]
4 | 65.99 % of control |  |  |  | O=C1NC(=O)C(Cc2csc3ccccc23)S1 (centres unmarked) [DN204291, 5-(benzo[b]thiophen-3-ylmethyl)thiazolidine-2,4-dione]
5 |  | 57.26 % of control |  |  | O=C1NC(=O)C(Cc2cc[nH]c2)S1 (centres unmarked) [DN204307, 5-((1H-pyrrol-3-yl)methyl)thiazolidine-2,4-dione]
6 | 66.31 % of control | 52.16 % of control | 66.03 % of control | 73.34 % of control | O=C1NC(=S)SC1Cc1ccsc1 (centres unmarked) [DN204306, 5-(thiophen-3-ylmethyl)-2-thioxothiazolidin-4-one]
7 | 88.61 % of control | 77.02 % of control |  |  | CN1C(=O)N/C(=C\c2csc3ccccc23)C1=O [DN204671, (Z)-5-(benzo[b]thiophen-3-ylmethylene)-3-methylimidazolidine-2,4-dione]
8 | 55.97 % of control | 58.22 % of control |  | 95.86 % of control | O=C1NC(=O)C(Cc2ccsc2)S1 (centres unmarked) [DN204293, 5-(thiophen-3-ylmethyl)thiazolidine-2,4-dione]
9 | 74.09 % of control | 80.79 % of control |  |  | O=C1NC(=O)/C(=C/c2ccsc2)S1 [DN204288, (Z)-5-(thiophen-3-ylmethylene) thiazolidine-2,4-dione]
10 | 90.337 % of control | 39.019 % of control | 80.31 % of control | 45.47 % of control | O=C1NC(=S)SC1Cc1c[nH]c2ccccc12 (centres unmarked) [DN204301, 5-((1H-indol-3-yl)methyl)-2-thioxothiazolidin-4-one]
11 | 63.18 % of control | 60.16 % of control | 82.23 % of control | 77.46 % of control | O=C1NC(=O)C(Cc2ccoc2)S1 (centres unmarked) [DN204292, 5-(furan-3-ylmethyl)thiazolidine-2,4-dione]
12 | 69.16 % of control | 59.86 % of control | 61.17 % of control | 71.42 % of control | O=C1NC(=O)/C(=C/c2ccoc2)S1 [DN204287, (Z)-5-(furan-3-ylmethylene)thiazolidine-2,4-dione]
13 | 92.633 % of control |  |  |  | O=C1NC(=S)SC1Cc1csc2ccccc12 (centres unmarked) [DN204300, 5-(benzo[b]thiophen-3-ylmethyl)-2-thioxothiazolidin-4-one]
14 | 74.98 % of control | 59.6 % of control | 89.98 % of control |  | O=C1NC(=O)C(Cc2c[nH]c3ccccc23)S1 (centres unmarked) [DN204295, 5-((1H-indol-3-yl)methyl)thiazolidine-2,4-dione]
15 | 83.45 % of control | 56.13 % of control | 61.22 % of control | 56.43 % of control | O=C1NC(=S)SC1Cc1ccoc1 (centres unmarked) [DN204305, 5-(furon-3-ylmethyl)-2-thioxothiazolidin-4-one]
16 | 67.16 % of control | 47.38 % of control |  |  | O=C1NC(=S)SC1Cc1cnc2ccccc2c1 (centres unmarked) [DN204302, 5-(quinolin-3-ylmethyl)-2-thioxothiazolidin-4-one]
17 |  | 70.7 % of control | 39.88 % of control | 36.97 % of control | CCN1C(=O)/C(=C/c2cccs2)NC1=S [DN204815, (Z)-3-ethyl-5-(thiophen-2-ylmethylene)-2-thioxoimidazolidin-4-one]
18 | 97.55 % of control | 75.35 % of control |  |  | CCN1C(=O)/C(=C/c2csc3ccccc23)SC1=S [DN205782, (Z)-5-(benzo[b]thiophen-3-ylmethylene)-3-ethyl-2-thioxothiazolidin-4-one]
19 | 53.14 % of control | 42.56 % of control | 64.04 % of control | 78.38 % of control | O=C1NC(=O)/C(=C/c2c[nH]c3ccccc23)S1 [DN204285, (Z)-5-((1H-indol-3-yl)methylene)thiazolidine-2,4-dione]
20 | 81.81 % of control | 69.79 % of control |  |  | CCN1C(=O)/C(=C/c2cccc3ccccc23)SC1=S [DN205783]
21 | 87.73 % of control |  |  |  | CN1C(=O)N/C(=C\c2cccc3ccoc23)C1=O [DN204670, (Z)-5-(benzofuran-7-ylmethylene)-3-methylimidazolidine-2,4-dione]
22 | 63.13 % of control | 42.61 % of control | 54.41 % of control | 40.38 % of control | O=C1NC(=O)/C(=C/c2c[nH]c3cnccc23)S1 [DN204290, (Z)-5-((1H-pyrrolo[2,3-c]pyridin-3-yl)methylene)thiazolidine-2,4-dione]
